This is an account of results in publication PMC4312629, “Pharmacokinetics of Etravirine Combined with Atazanavir/Ritonavir and a Nucleoside Reverse Transcriptase Inhibitor in Antiretroviral Treatment-Experienced, HIV-1-Infected Patients” (AIDS Research and Treatment, 2015).

A short description of data set [1]: TEACH: steady-state plasma pharmacokinetics of atazanavir and etravirine (LC-MS/MS, noncompartmental analysis). The data set is classed as in vivo, HIV-1-infected patients. The protocol: Blood samples for analyses of atazanavir and ritonavir plasma concentrations were collected over 24 hours (before dose and 1, 2, 3, 4, 6, 9, 12, and 24 hours after dose) on the last day of the two-week pretreatment period and after Week 2 of the treatment period. Blood samples for evaluation of etravirine plasma concentrations were collected after Week 2. Atazanavir, ritonavir, and etravirine were assayed using validated liquid chromatography-mass spectrometry/mass spectrometry, with a lower limit of quantification of 250 ng/mL, 5.00 ng/mL, and 2.00 ng/mL, respectively.
Pharmacokinetic parameters were obtained using noncompartmental analysis (WinNonlin Professional version 4.1, Pharsight, Mountain View, CA, USA) and included C min, maximum plasma concentration (C max), and AUC12 h for etravirine and AUC24 h for atazanavir and ritonavir.
The least square means (LSM) of C min, C max, and AUC24 for atazanavir and ritonavir were estimated with a linear mixed-effects model, including treatment as fixed effect and subject as a random effect (SAS version 9.3, SAS Institute, Cary, NC, USA). A 90% confidence interval (CI) was constructed around the difference between the LSM of test and reference. The LSM differences and 90% CIs were retransformed to the original scale. No effect (prespecified) was declared if the 90% CIs of the LSM ratio were within the limits of 80.00–125.00%. The pharmacokinetics of etravirine was compared with historic data from DUET [21].

Another data set has as its system HIV-1. To be noted: for median etravirine FC (range): virologic failures (n = 12).
Data set [2] can be described thus: TEACH pharmacokinetic substudy: addition of TDF for seven days to atazanavir/ritonavir and etravirine. To be noted: adding TDF to ATV/r and etravirine, both ATV/r dose groups combined (7 patients), compared with Day −1. On the procedure:
The trial consisted of a ≤4-week screening period, a pretreatment period of two weeks (atazanavir/ritonavir 300/100 mg qd and two NRTIs), and a 48-week treatment period. Patients were randomized 1 : 1, by a computer-generated interactive web response system, to receive either atazanavir/ritonavir 300/100 mg qd or 400/100 mg qd (Figure 1). […] Atazanavir/ritonavir 400/100 mg qd was given to the other group to offset the potential reduction in atazanavir exposure, while at the same time investigating if the higher dose of atazanavir might further affect etravirine exposure. At baseline, in both groups, one of the two NRTIs was switched to etravirine 200 mg bid. NRTIs were selected by the investigators based on resistance testing; however, tenofovir disoproxil fumarate (TDF) was not permitted. Patients who were intolerant to their NRTI could switch to another sensitive NRTI, excluding TDF. Tenofovir decreases both atazanavir and etravirine exposure.
Seven patients participated in the pharmacokinetic substudy, 3 patients randomized to atazanavir/ritonavir 300/100 mg qd and 4 patients randomized to atazanavir/ritonavir 400/100 mg qd. Because of the small sample size, results of the two groups were combined.

Details of data set [3]: method as in PMID 20881958. As to conditions: Pooled DUET: ETR 200 mg bid + DRV/r 600/100 mg bid, Week 4 (reference, n = 25), cited from earlier work.
For data set [4] the following is noted: healthy volunteers; etravirine 800 mg bid (formulation TF035) and ATV/r 300/100 mg qd; cited from earlier work.
Where [5] appears, read: Test 1 (with ATV/r 300/100 mg qd, Week 2) versus pooled DUET reference (ETR + DRV/r, Week 4).
Setting [6] is: Test 2 (with ATV/r 400/100 mg qd, Week 2) versus pooled DUET reference (ETR + DRV/r, Week 4).
[7] abbreviates: with ATV/r 300/100 mg qd, compared with historic control data (DUET).
Where [8] appears, read: with ATV/r 400/100 mg qd, compared with historic data (DUET).

SMILES strings stand for the structures. Like-named read-outs stand apart in the source and are kept apart here.

Source text for HIV-1: The main inclusion criteria were HIV-1-infected adults who had previously received ≥1 antiretroviral regimen but failed ≤1 PI-based regimen and were currently on a stable but failing antiretroviral regimen (viral load [VL] > 500 copies/mL at screening) (Cobas Amplicor HIV-1 VL assay, Roche Molecular Systems, Inc., Branchburg, NJ, USA; assay performed by Covance Central Laboratory Services). Patients were required to be sensitive to atazanavir, etravirine, and the selected NRTIs (with the exception of emtricitabine or lamivudine) based on resistance testing at screening using the PhenoSense GT assay (Monogram Biosciences, South San Francisco, CA, USA). […] The clinical cut-offs used for etravirine and boosted atazanavir were 2.9–10.0 and 5.2, respectively.
During the treatment session, plasma VL was determined at baseline, Weeks 2 and 4, and monthly until Week 48. Virologic failures were classified as patients who were still in the study at Week 12 and (i) who never achieved two consecutive VL values < 50 copies/mL (nonresponders) or (ii) first achieved two consecutive VL values < 50 copies/mL followed by two consecutive VL values > 50 copies/mL or discontinued for any reason with VL > 50 copies/mL (rebounders). Changes in viral phenotype and genotype in virologic failures were determined using the PhenoSense GT assay.

For the molecule `COC(=O)N[C@H](C(=O)N[C@@H](Cc1ccccc1)[C@@H](O)CN(Cc1ccc(-c2ccccn2)cc1)NC(=O)[C@@H](NC(=O)OC)C(C)(C)C)C(C)(C)C` [atazanavir], the Tmax in data set [1] (human, in vivo, Test 1: ATV/r 300/100 mg qd + one NRTI + ETR 200 mg bid, Week 2, median (range), read-out: atazanavir t max) was found to be 3 h. In addition, the “change in atazanavir FC” value with HIV-1 (virologic failures, baseline to endpoint) was “no increase”.
As to `Cc1cc(C#N)cc(C)c1Oc1nc(Nc2ccc(C#N)cc2)nc(N)c1Br` [etravirine], in data set [1] (setting [5]), the “etravirine AUC0–12 h LSM ratio (90% CI) of test versus reference” value is reported as 1.24 (0.88–1.76), the “etravirine C max LSM ratio (90% CI) of test versus reference” value was 1.06 (0.78–1.46) and the “etravirine C min LSM ratio (90% CI) of test versus reference” value is 1.07 (0.60–1.90). Also, in data set [1] (setting [6]), the “etravirine AUC0–12 h LSM ratio (90% CI) of test versus reference” value is recorded as 0.84 (0.60–1.18), the “etravirine C max LSM ratio (90% CI) of test versus reference” value was 0.87 (0.65–1.18) and the “etravirine C min LSM ratio (90% CI) of test versus reference” value is given as 0.83 (0.54–1.29). In data set [1] (setting [7]), the “increase in etravirine AUC12 h” value was 24%, the “increase in etravirine C max” value is 6% and the “increase in etravirine C min” value was 7%. In data set [1] (setting [8]), the “decrease in etravirine AUC12 h” value turned out to be 16%, the “decrease in etravirine C max” value turned out to be 13% and the “decrease in etravirine C min” value is 17%. Also, in data set [2], the “decrease in etravirine AUC12 h” value is 15%, the “decrease in etravirine C max” value was 19%, the “etravirine AUC12 h LSM ratio [90% CIs]” value was 0.85 [0.79–0.92] and the “etravirine C max LSM ratio [90% CIs]” value is 0.81 [0.72–0.91]. Also, the “median etravirine FC (range)” value with HIV-1 (at baseline) was 0.73 (0.4–1.7). Moreover, the “median etravirine FC (range)” value with HIV-1 (at endpoint) is 2.99 (0.6–40.0). In data set [3] (mean ± SD), the “etravirine AUC0–12 h” value is on record as 7964 ± 11180 ng·h/mL, the “etravirine C 0 h” value is reported as 545.0 ± 818.6 ng/mL, the “etravirine C max” value was 879.6 ± 1030 ng/mL and the “etravirine C min” value is 452.6 ± 806.0 ng/mL. Also, the etravirine t max in data set [3] (median (range)) is 3.95 (0.08–6.08) h. In data set [4], the “increase in etravirine AUC24 h” value is listed as 1.3 fold and the “increase in etravirine C min” value was 1.3 fold.
